Source: paper PMC4128046, “Effect of a toggle switch mutation in TM6 of the human adenosine A3 receptor on Gi protein-dependent signalling and Gi-independent receptor internalization” (British Journal of Pharmacology, 2014)

Legend:
Assay type in all cases: cell-based
A3-vYc/β-arrestin2-vYnL = biological target: T1, A3-vYc/β-arrestin2-vYnL (Homo sapiens, UniProt P0DMS8); assay: BiFC of receptor with β-arrestin2 (automated imaging), A3-vYc; conditions: A3-vYc/β-arrestin2-vYnL cells; for Maximal BiFC (%): percentage of 10 μM NECA in the cell line
T1 construct: cDNA encoding the full length human A3 receptor; expressed in transfected cells; host or cells: CHO-K1 stably expressing β-arrestin2-vYnL, stably co-transfected with A3-vYc

[1] = biological target: T2, A3 W243F-vYc/β-arrestin2-vYnL (Homo sapiens, UniProt P0DMS8, W243F); assay: BiFC of receptor with β-arrestin2 (automated imaging), A3 W243F-vYc; conditions: A3 W243F-vYc/β-arrestin2-vYnL cells; for Maximal BiFC (%): percentage of 10 μM NECA in the cell line
T2 construct: cDNA encoding the full length human A3 receptor; expressed in transfected cells; host or cells: CHO-K1 stably expressing β-arrestin2-vYnL, stably co-transfected with A3 W243F-vYc

SNAP-A3 W243F = biological target: T3, SNAP-A3 W243F (Homo sapiens, UniProt P0DMS8, W243F); assay: Confocal imaging of SNAP-tagged receptor internalization, SNAP-A3 W243F; conditions: SNAP-A3 W243F transiently expressed in CHO CRE-SPAP cells, BG-AF488 label, 10 μM agonist
T3 construct: the methionine start signal was removed from cDNA encoding the full length A3; expressed in transfected cells; host or cells: CHO CRE-SPAP, transient (Fugene HD)
T3 sequence (P0DMS8 2-318 W243F limits assumed): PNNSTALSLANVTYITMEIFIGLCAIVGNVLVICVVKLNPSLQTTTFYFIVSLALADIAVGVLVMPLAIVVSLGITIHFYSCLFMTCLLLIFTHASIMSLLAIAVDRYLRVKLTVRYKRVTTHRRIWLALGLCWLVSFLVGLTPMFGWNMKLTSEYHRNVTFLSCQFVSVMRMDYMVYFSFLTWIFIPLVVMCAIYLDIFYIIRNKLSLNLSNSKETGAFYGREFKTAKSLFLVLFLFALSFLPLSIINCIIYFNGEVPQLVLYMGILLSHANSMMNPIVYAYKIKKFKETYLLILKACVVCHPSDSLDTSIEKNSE
Procedure: CHO-K1 cells stably expressing a cAMP response element-secreted placental alkaline phosphatase (CRE-SPAP) reporter gene (CHO CRE-SPAP) under hygromycin selectivity and CHO-K1 cells stably expressing β-arrestin2-vYnL (CHO β-arrestin2-vYnL, a gift from Dr. N. Holliday, University of Nottingham, Nottingham, UK) were maintained in DMEM/F12 medium containing 10% FCS and 2 mM L-glutamine at 37°C in a humidified atmosphere of air/CO2 (19:1). […] Cell lines were initially screened for YFP or bimolecular fluorescence complementation (BiFC) fluorescence and CRE-SPAP cells lines were subsequently tested in the CRE-SPAP gene transcription assay. […]
Live-cell BiFC imaging was performed on A3-vYc/β-arrestin2-vYnL and A3 W243F-vYc/β-arrestin2-vYnL cells grown in Nunc Labtek 8-well plates, and images obtained using a Zeiss 710 confocal microscope (Carl Zeiss GmbH, Jena, Germany) fitted with a 63× plan-Apochromat NA1.4 Ph3 oil-immersion objective. […] For both YFP, BiFC and BG-AF488 label, a 488 nm argon laser was used to excite the fluorophore and emission was detected using a BP505-530 filter. […] Images of A3-YFP and A3 W243F-YFP cells were taken with same pinhole diameter, laser power, gain and offset to allow comparison of YFP fluorescence. To obtain fluorescence intensity values, a region of interest was drawn around the plasma membrane of 10 cells per image in Zeiss AIM 4.2 software (Carl Zeiss GmbH).

A3-YFP = biological target: T4, A3-YFP (Homo sapiens, UniProt P0DMS8); assay: Confocal imaging of receptor internalization and membrane YFP fluorescence, A3-YFP; conditions: A3-YFP cells, 10 μM agonist
T4 construct: cDNA encoding the full length human A3 receptor; expressed in transfected cells
T4 sequence (P0DMS8 1-318): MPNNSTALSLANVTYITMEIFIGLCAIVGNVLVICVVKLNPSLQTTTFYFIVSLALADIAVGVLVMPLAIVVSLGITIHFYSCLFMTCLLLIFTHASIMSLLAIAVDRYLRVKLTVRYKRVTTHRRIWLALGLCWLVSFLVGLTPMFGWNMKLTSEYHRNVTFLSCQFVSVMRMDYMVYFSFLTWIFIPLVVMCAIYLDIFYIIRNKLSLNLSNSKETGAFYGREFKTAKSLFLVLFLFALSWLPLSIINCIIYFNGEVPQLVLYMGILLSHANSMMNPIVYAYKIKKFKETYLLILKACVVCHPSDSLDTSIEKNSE
Procedure: Live-cell BiFC imaging was performed on A3-vYc/β-arrestin2-vYnL and A3 W243F-vYc/β-arrestin2-vYnL cells grown in Nunc Labtek 8-well plates, and images obtained using a Zeiss 710 confocal microscope (Carl Zeiss GmbH, Jena, Germany) fitted with a 63× plan-Apochromat NA1.4 Ph3 oil-immersion objective. Live-cell imaging analysis was performed on A3-YFP or A3 W243F-YFP CRE-SPAP cells and transiently expressed SNAP-A3 or SNAP-A3 W243F grown in Nunc Labtek 8-well plates, and images obtained using a Zeiss LSM5 Exciter confocal microscope (Carl Zeiss GmbH) fitted with a 63× plan-Apochromat NA1.4 DIC oil-immersion objective. For both YFP, BiFC and BG-AF488 label, a 488 nm argon laser was used to excite the fluorophore and emission was detected using a BP505-530 filter. Cells expressing the SNAP-tagged receptors were labelled with 1 μM SNAP-surface BG-AF488 (New England Biolabs) in DMEM/F12 medium for 30 min at 37°C/5% CO2. Before all imaging experiments, normal growth medium or medium containing BG-AF488 was removed and cells were washed twice in HEPES-buffered saline solution (HBSS; 25 mM HEPES, 10 mM glucose, 146 mM NaCl, 5 mM KCl, 1 mM MgSO4, 2 mM sodium pyruvate, 1.3 mM CaCl2) and fresh HBSS was added for analysis. […] Images of A3-YFP and A3 W243F-YFP cells were taken with same pinhole diameter, laser power, gain and offset to allow comparison of YFP fluorescence. To obtain fluorescence intensity values, a region of interest was drawn around the plasma membrane of 10 cells per image in Zeiss AIM 4.2 software (Carl Zeiss GmbH).

[2] = 60 min, read-out: pEC50 (BiFC with β-arrestin2-vYnL) (converted)

T2 sequence (P0DMS8 whole entry W243F): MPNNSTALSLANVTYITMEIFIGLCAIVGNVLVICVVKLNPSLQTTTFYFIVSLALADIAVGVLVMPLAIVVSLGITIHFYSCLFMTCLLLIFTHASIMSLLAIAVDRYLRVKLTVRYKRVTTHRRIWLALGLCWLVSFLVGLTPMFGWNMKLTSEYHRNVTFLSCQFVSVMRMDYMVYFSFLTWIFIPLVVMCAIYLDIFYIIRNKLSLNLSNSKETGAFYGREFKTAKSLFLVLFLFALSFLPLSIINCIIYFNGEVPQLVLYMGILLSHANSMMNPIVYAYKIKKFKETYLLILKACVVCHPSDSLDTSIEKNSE
T2 sequence (P32121 whole entry partner): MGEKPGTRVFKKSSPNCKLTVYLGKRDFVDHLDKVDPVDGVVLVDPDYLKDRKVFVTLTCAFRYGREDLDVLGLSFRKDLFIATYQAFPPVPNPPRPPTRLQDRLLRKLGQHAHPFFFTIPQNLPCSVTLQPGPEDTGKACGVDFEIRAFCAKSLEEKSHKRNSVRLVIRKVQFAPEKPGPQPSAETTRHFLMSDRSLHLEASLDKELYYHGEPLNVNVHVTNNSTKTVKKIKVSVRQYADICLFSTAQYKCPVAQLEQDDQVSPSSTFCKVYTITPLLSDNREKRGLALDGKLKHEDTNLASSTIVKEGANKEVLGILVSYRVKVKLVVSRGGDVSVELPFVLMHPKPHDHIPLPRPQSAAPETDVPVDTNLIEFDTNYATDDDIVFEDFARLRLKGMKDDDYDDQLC
T1 sequence (P32121 whole entry partner, one chain of several): as the sequence (P32121 whole entry partner) above

Compound	Maximal BiFC (%) (A3-vYc/β-arrestin2-vYnL; 60 min)	Maximal BiFC (%) ([1]; 60 min)	internalization of SNAP-tagged receptor seen in confocal images (SNAP-A3 W243F)	internalization of the receptor seen in confocal images (A3-YFP)	reduction in membrane fluorescence (A3-YFP)	% maximal internalization vs. 10 μM NECA at 2 h (BiFC) (A3-vYc/β-arrestin2-vYnL; 10 μM, 2 h)	EC50 (A3-vYc/β-arrestin2-vYnL; [2])	% maximal internalization vs. 10 μM NECA at 2 h (BiFC) ([1]; 10 μM, 2 h)	EC50 [1, 2]
CCNC(=O)[C@H]1O[C@@H](n2cnc3c(N)ncnc32)[C@H](O)[C@@H]1O [NECA, 5-(N-ethylcarboxamido)adenosine]	100%	100%	retained the ability to cause internalization	rapid internalization	50%				
CCCCC#Cc1nc(NC)c2ncn([C@@H]3O[C@H](CO)[C@@H](O)[C@H]3O)c2n1 [HEMADO, 2-(1-hexynyl)-N-methyladenosine]	72.2 ± 7.1%	54.5 ± 6.1%	did not result in any clear change in the localization	substantial internalization	50%	84.3 ± 8.2%	6.46 nM	58.0 ± 5.8%	10.7 nM
